The test system of this assay is CEM cells HIV-1 protection, formazan growth assay. Kind of assay: NCI AIDS Antiviral Assay. Particulars: for IC50: measured here: growth of uninfected CEM cells. An outline of the steps: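 CEM (human) cells, HIV-1 infected vs uninfected, 5-point dosing, formazan growth read-out. Retest threshold 50% protection.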

Among the data in PubChem BioAssay AID179 (DTP/NCI, 2004) are EC50, IC50 and outcome values, retold here.

SMILES strings stand for the structures. Activity calls are given as the source filed them.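 How the source made its calls: active means compounds giving half or more protection of infected cells from virus-caused growth loss, again on retest; inactive means the rest.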 Where a SMILES comes first, the peptide text is derived from it.

Consider `COC(=O)/C(=N/O)C(C(=O)C=C(C)C)C(=O)C(=O)Nc1nc2ccc([N+](=O)[O-])cc2s1` (stereo not drawn), for which the EC50 (commonly the concentration giving half of the maximal effect) is above 41.7 µM and the concentration for half-maximal inhibition (IC50) – broadly, the concentration that inhibits the measured activity by half – was 32.4 µM.
The like results for `CCCCCOC(=O)c1cccc(NC(=O)CN(CC)CC)c1` were, in that order, above 200 µM and 95.5 µM.
The like results for `COC(=O)C12C3C4C5C3(C#N)C1C5(C(=O)OC)C42C(=O)N(C(C)C)C(C)C` (stereo not drawn) were, in that order, above 97.7 µM and above 97.7 µM.
The corresponding values for `O=C(O)c1ccc(CS(=O)(=O)c2ccccc2C(=O)O)cc1` are above 776 µM and above 776 µM.
Regarding `Cc1ccc(/C=C2\CN(C)CC3C2=NC(=S)NC3c2ccc(C)cc2)cc1` (stereo not drawn), the EC50 is above 200 µM and the IC50 worked out at 24.5 µM.
Consider `N#Cc1ccc(C(=O)/C=C/c2ccc(O)c(O)c2)cc1`, for which the EC50 was above 200 µM and the half-maximal inhibitory concentration (IC50) stood at 10.2 µM.
Take `COc1cc(C(c2cc3c(cc2O)OCO3)N2CCCC2)cc(OC)c1OC` (stereo not drawn): the EC50 is above 200 µM and the IC50 worked out at 7.76 µM.
The corresponding values for `CC#N.CC#N.COC(=O)[C@@H]1CN(C(=O)Cc2ccccc2)C(=O)[N-]1.COC(=O)[C@@H]1CN(C(=O)Cc2ccccc2)C(=O)[N-]1.COC(=O)[C@@H]1CN(C(=O)Cc2ccccc2)C(=O)[N-]1.COC(=O)[C@@H]1CN(C(=O)Cc2ccccc2)C(=O)[N-]1.[Rh+2].[Rh+2]` are above 12 µM and 11 µM.
For the compound `N#Cc1c(N)nc(SCc2ccccc2)c(C#N)c1-c1ccc(O)cc1`, the EC50 was above 200 µM and the 50% inhibitory concentration (IC50) was found to be 10 µM.
The like results for `CCCCN(CCCC)C(=S)S` were, in that order, above 200 µM and above 200 µM.
The corresponding values for `CC[C@]1(Cc2ccc(OC)c(OC)c2)[C@@H]2C[C@@H](C(=O)OC)ON2O[C@H](OC2CCCC2(c2ccccc2)c2ccccc2)[C@@H]1OC(C)=O` (stereo partly drawn) are above 200 µM and 21.4 µM.
The like results for `O=C(O)CC[C@H](NC(=O)c1ccc(-n2nc3ccc(O)cc3nc2=O)cc1)C(=O)O` were, in that order, above 145 µM and above 145 µM.
Regarding `CN1C(=O)C2CC(O)C(SC3CC4C(=O)N(C)C(=O)C4CC3O)CC2C1=O` (stereo not drawn), the EC50 is above 200 µM and the IC50 was above 200 µM.
For `CC(C)=CCc1c(O)ccc2c1OC1c3ccc(O)c(CC=C(C)C)c3OCC21` (stereo not drawn), the outcome was inactive.
As to `Cc1ccc(S(=O)(=O)Nn2c3c(cc(C#N)c2=O)CCCCC3)cc1`, the EC50 is above 200 µM and the 50% inhibitory concentration (IC50) is above 200 µM.
Take `CCOC(=O)CC(Sc1ccccc1)Sc1ccccc1`: the outcome was inactive.
`Cc1cc(N=Nc2ccc(-c3ccc(N=Nc4ccc(O)c(C(=O)O)c4)cc3)cc2)c(C)cc1N`: the EC50 is above 100 µM and the 50% inhibitory concentration (IC50) came out at 41.7 µM.
The corresponding values for `COc1cc2c(cc1OC)[N+]1(C)CCC3OCCC4C[N+]5(C)CCC26C5CC4C3C61` (stereo not drawn) are above 372 µM and above 372 µM.
The corresponding values for `COc1nc2c(c(=O)[nH]1)N=C(c1ccc([N+](=O)[O-])cc1)CC(c1ccccc1)N2` (stereo not drawn) are above 200 µM and 46.8 µM.
On to `Cc1cn(C2CC(N=[N+]=[N-])C(COC(=O)[C@@]3(O)CCC4C5CCC6=CC(=O)C=C[C@]6(C)C5[C@@H](O)C[C@@]43C)O2)c(=O)[nH]c1=O` (stereo partly drawn), for which the concentration for a half-maximal effect (EC50) is 1.15 µM and the IC50 was 22.9 µM.
The corresponding values for `Nc1ccc(Sc2c3ccccc3nc3ccccc23)cc1` are above 17.4 µM and 9.55 µM.
`CC1=CC23C(COC(=O)C24CO4)C(C(=O)O)=CC3C1C` (stereo not drawn) (tested in a mixture with another compound) yielded a 50% effective concentration (EC50) above 200 µM and an IC50 of 47.9 µM.
The like results for `O=S1(=O)c2ccccc2C(Nc2ccccc2)N1c1ccccc1` (stereo not drawn) were, in that order, above 200 µM and 66.1 µM.
As for `CCCCN(O)[C@@H]1CC(n2cc(C)c(=O)[nH]c2=O)OC1CO[Si](C)(C)C(C)(C)C` (stereo partly drawn), the EC50 was above 200 µM and the concentration for half-maximal inhibition (IC50) was 83.2 µM.
Take `O=C(N/N=C\c1cccc(/C=N\NC(=O)Nc2ccc(N=Nc3ccccc3)cc2)n1)Nc1ccc(N=Nc2ccccc2)cc1`: the EC50 was above 200 µM and the IC50 stood at 39.8 µM.
The corresponding values for `O=S1(=O)NCNc2cc(C(F)(F)F)ccc21` are above 1000 µM and 380 µM.
Take `COc1cc2c(SCCN(C)C)nc3ccccc3c2c2ccccc12`: the outcome was inactive.
Take `COC(=O)CC1NC(=O)C1C(C)O[Si](C)(C)C(C)(C)C` (stereo not drawn): the EC50 is above 603 µM and the IC50 came out at 288 µM.
`C=CCOCCCCC(C(C)=O)C(=O)OC` (stereo not drawn): the EC50 was above 251 µM and the IC50 was above 251 µM.
Consider `Cc1occc1C(=S)Nc1ccc(Cl)c(/C=N/OC(C)C)c1`, for which the 50% effective concentration (EC50) was 0.0263 µM and the half-maximal inhibitory concentration (IC50) was found to be 18.2 µM.
Consider `CCOC(=O)COc1ccc(OC)c2c1C(=O)CCC2`, for which the result was inactive.
Turning to `CN(C)C(=S)N/N=C\C(=N/NC(=S)N(C)C)c1ccccc1`, the EC50 is above 200 µM and the half-inhibitory concentration (IC50) was 12.9 µM.
`CCOC(=O)c1[nH]cc(C)c1-c1ccc2c(-c3ccccc3)nc3ccccc3n12`: the EC50 was above 200 µM and the IC50 came out at 3.16 µM.
The corresponding values for `CC1(C)CNCC(C)(OCc2ccccc2)C(=O)NC(C)(C)CNCC(C)(OCc2ccccc2)C(=O)N1` (stereo not drawn) are 3.8 µM and 24.5 µM.
The like results for `CCOP(C)(=O)C(N)Cc1ccc(OC)c(OC)c1` (stereo not drawn) were, in that order, above 200 µM and above 200 µM.
Take `Cc1ccc(SSc2ccc(C)cc2C(=O)O)c(C(=O)O)c1`: the EC50 is above 200 µM and the IC50 is above 200 µM.
For `CC1(C)c2ccccc2-c2nc3ccccc3cc2C1N1CCOCC1` (stereo not drawn), the EC50 is above 200 µM and the IC50 amounted to 41.7 µM.
Consider `CC(O[Si](C)(C)C)C1C=CC(C)n2c(=O)n(-c3ccccc3)c(=O)n21` (stereo not drawn), for which the result was inactive.
`CSC(SC)=C(C#N)C(=O)Nc1ccc(C)cc1`: the EC50 is above 200 µM and the IC50 was found to be 3.63 µM.
The corresponding values for `COC1Cc2c(C)c(OC(C)=O)c3cccnc3c2O1` (stereo not drawn) are above 200 µM and 22.4 µM.
As for `C=CCC1C(=O)CC2(C)C(CC=C)C(=O)CC12C` (stereo not drawn), the result was inactive.
For `Cc1cc(CS(=O)(=O)/C=C/c2ccccc2[N+](=O)[O-])c(CS(=O)(=O)/C=C/c2ccccc2[N+](=O)[O-])cc1C`, the EC50 is above 11.5 µM and the half-inhibitory concentration (IC50) was above 11.5 µM.
As for `O=C1C=C(N2CCCC2)C=C(N2CCCC2)C1`, the EC50 was above 155 µM and the IC50 amounted to 81.3 µM.
The corresponding values for `Cc1cc(C)c2c(=N)c3ccccc3n(CCCCCCn3c4ccccc4c(=N)c4c(C)cc(C)nc43)c2n1` are above 2 µM and 0.302 µM.
As to `CC(C)(C)c1ccccc1NS(=O)(=O)c1ccccc1`, the result was inactive.
With `NCCN1C(=O)C2C3c4ccccc4C(c4ccccc43)C2C1=O` (stereo not drawn), the result was inactive.
`C[N+](C)(CCNC(=O)c1cccc2cc3ccccc3nc12)Cc1ccc([N+](=O)[O-])cc1`: the EC50 is above 200 µM and the IC50 worked out at 97.7 µM.
For `CC(C)(C)C1=CC(=C(P(=O)(O)O)P(=O)(O)O)C=C(C(C)(C)C)C1=O`, the EC50 is above 537 µM and the IC50 was above 537 µM.
`CCOC(=O)c1nc2ccccc2nc1Oc1cc(OC)cc(OC)c1`: the EC50 was above 200 µM and the 50% inhibitory concentration (IC50) is above 200 µM.
Consider `Cn1cc(NC(=O)Nc2cc(C(=O)Nc3cc(C(=O)Nc4cc(C(=O)Nc5ccc6cc(S(=O)(=O)O)cc(S(=O)(=O)O)c6c5)n(C)c4)n(C)c3)n(C)c2)cc1C(=O)Nc1cc(C(=O)Nc2cc(C(=O)Nc3ccc4cc(S(=O)(=O)O)cc(S(=O)(=O)O)c4c3)n(C)c2)n(C)c1`, for which the EC50 is 0.977 µM and the IC50 worked out at 117 µM.
As for `CCC1CC2CN3CCc4c([nH]c5ccccc45)C(C(=O)OC)(C2)C13` (stereo not drawn), the result was inactive.
In the case of `O=C1CS(=O)(=O)C2(CCCCC2)C(=O)N1`, the EC50 is above 200 µM and the IC50 is above 200 µM.
On to `O=S(=O)(CC#CCO)c1ccccc1`, for which the result was inactive.
As for `CC1=C(C)CC2(CC1)C(=O)NC(=O)NC2=O`, the EC50 is above 832 µM and the IC50 was above 832 µM.
`O=c1[nH]c(=S)[nH]c2c1CN(CCCN1CCOCC1)CN2`: the EC50 is above 794 µM and the half-maximal inhibitory concentration (IC50) is 49 µM.
The like results for `Cc1ccc(CCNC(=S)SCC(NC(=O)CCC(N)C(=O)O)C(=O)NCC(=O)O)cc1` (stereo not drawn) were, in that order, above 102 µM and 8.71 µM.
The corresponding values for `CCOC(=O)c1c(-c2ccc(OC)cc2)c(C#N)c(=S)n(C2OC(COC(C)=O)C(OC(C)=O)C(OC(C)=O)C2OC(C)=O)c1-c1ccccc1` (stereo not drawn) are above 200 µM and 25.7 µM.
The corresponding values for `CC(=O)OC(C)(C)CCC(=O)[C@](C)(O)[C@H]1[C@H](O)C[C@@]2(C)[C@@H]3CCc4c(cc(OC5OC(CO)C(O)C(O)C5O)c(O)c4C)C3(C)C(=O)C[C@]12C` (stereo partly drawn) are above 200 µM and above 200 µM.
On to `COc1ccccc1C(=O)c1c(N2CCCCC2)c(=O)c1=O`, for which the half-maximal effective concentration (EC50) is 182 µM and the IC50 is above 200 µM.
As to `CCC(C)C(NC(=O)C(CCC(N)=O)NC(=O)C1CCCN1)C(=O)NC(C(=O)NC(CC(C)C)C(=O)O)C(C)O` (stereo not drawn) (H-PQITL-OH; configuration not given here), the result was inactive.
With `COc1cc(C2c3cc4c(cc3CC3COC(=O)N32)OCO4)cc(OC)c1OC` (stereo not drawn), the EC50 was above 25.1 µM and the IC50 amounted to 1.38 µM.
The like results for `O=C(O)c1nc2ccccc2nc1Nc1ccc(Cl)c(Cl)c1` were, in that order, above 200 µM and 11.5 µM.
Take `CC(C)(C)OC(=O)[C@@H]1CCC(=O)N1C1(c2ccccc2)c2ccccc2-c2ccccc21`: the EC50 is above 200 µM and the IC50 amounted to 141 µM.
The like results for `O=c1oc2ccccc2c2nc3c([N+](=O)[O-])cccc3cc12` were, in that order, above 200 µM and 8.13 µM.
The corresponding values for `O=C1OC(c2ccccc2)=C2CCC3CCCCN1C23` (stereo not drawn) are above 132 µM and above 132 µM.
The like results for `N#Cc1cc2c(n(C3OC(CO)C(O)C(O)C3O)c1=S)CCC2` (stereo not drawn) were, in that order, above 200 µM and above 200 µM.
As for `Nc1nc2n(n1)C(=O)C(=O)N2`, the EC50 was above 115 µM and the IC50 was above 115 µM.
